# Experiments:
# Test in all cases: relative viability (nuclei count vs DMSO), 5 days (fraction); higher = more cells survive
# CUDC-101 + AZD7762 = compound: C#Cc1cccc(Nc2ncnc3cc(OC)c(OCCCCCCC(=O)NO)cc23)c1 [CUDC-101] + NC(=O)Nc1cc(-c2cccc(F)c2)sc1C(=O)N[C@H]1CCCNC1 [AZD7762] (partner 0.2 µM)
# Outline: (§1)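 After 5 days of treatment, lung cancer cells in 1536-well plates were fixed and stained in a single step (final 0.05% Triton X-100, 1% formaldehyde, 1 ug/ml Hoechst) and their nuclei counted on 4× images. Treatment had been applied by pin tool the day after seeding as one drug alone or as a fixed anchor-drug dose with five library-drug doses (not always all listed) in √10 steps. Relative viability is the nuclei count of treated wells divided by that of vehicle wells, and values are medians of duplicate plates.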
# NVP-TAE684 + Luminespib = compound: COc1cc(N2CCC(N3CCN(C)CC3)CC2)ccc1Nc1ncc(Cl)c(Nc2ccccc2S(=O)(=O)C(C)C)n1 [NVP-TAE684] + CCNC(=O)c1noc(-c2cc(C(C)C)c(O)cc2O)c1-c1ccc(CN2CCOCC2)cc1 [Luminespib] (partner 0.01 µM)
# Outline: as §1
# NVP-TAE684 + Phenformin = compound: COc1cc(N2CCC(N3CCN(C)CC3)CC2)ccc1Nc1ncc(Cl)c(Nc2ccccc2S(=O)(=O)C(C)C)n1 [NVP-TAE684] + N=C(N)NC(=N)NCCc1ccccc1 [Phenformin] (partner 250 µM)
# Outline: as §1
# [1] = compound: C1=CC=C2C(=C1)N=C(S2)C(C#N)C3=NC(=NC=C3)NCCC4=CN=CC=C4 + CC1(C)CCC(c2ccc(Cl)cc2)=C(CN2CCN(c3ccc(C(=O)NS(=O)(=O)c4ccc(N[C@H](CCN5CCOCC5)CSc5ccccc5)c(S(=O)(=O)C(F)(F)F)c4)cc3)CC2)C1 [Navitoclax] (partner 0.5 µM)
# Outline: as §1
# NVP-TAE684 + Foretinib = compound: COc1cc(N2CCC(N3CCN(C)CC3)CC2)ccc1Nc1ncc(Cl)c(Nc2ccccc2S(=O)(=O)C(C)C)n1 [NVP-TAE684] + COc1cc2c(Oc3ccc(NC(=O)C4(C(=O)Nc5ccc(F)cc5)CC4)cc3F)ccnc2cc1OCCCN1CCOCC1 [Foretinib] (partner 0.25 µM)
# Outline: as §1
Cell Line,relative viability (CUDC-101 + AZD7762; first compound 0.01 µM),relative viability (CUDC-101 + AZD7762; first compound 0.03162 µM),relative viability (CUDC-101 + AZD7762; first compound 0.1 µM),relative viability (CUDC-101 + AZD7762; first compound 0.3162 µM),relative viability (CUDC-101 + AZD7762; first compound 1 µM),relative viability (NVP-TAE684 + Luminespib; first compound 0.2 µM),relative viability (NVP-TAE684 + Luminespib; first compound 0.6325 µM),relative viability (NVP-TAE684 + Luminespib; first compound 2 µM),relative viability (NVP-TAE684 + Phenformin; first compound 0.2 µM),relative viability (NVP-TAE684 + Phenformin; first compound 0.6325 µM),relative viability (NVP-TAE684 + Phenformin; first compound 2 µM),relative viability ([1]; first compound 0.005 µM),relative viability ([1]; first compound 0.01581 µM),relative viability ([1]; first compound 0.05 µM),relative viability ([1]; first compound 0.1581 µM),relative viability ([1]; first compound 0.5 µM),relative viability (NVP-TAE684 + Foretinib; first compound 0.2 µM),relative viability (NVP-TAE684 + Foretinib; first compound 0.6325 µM),relative viability (NVP-TAE684 + Foretinib; first compound 2 µM)
HCC-827,0.206,0.145,0.13,0.117,0.113,0.52,0.613,0.65,0.377,0.41,0.372,1.07,1.07,1.02,1.05,1.04,1.16,1.02,0.874
HOP-62,0.61,0.448,0.447,0.424,0.294,1.03,0.816,0.882,0.545,0.734,0.788,0.854,1.25,1.05,1.16,0.871,1.21,1.12,1.12
LC-2-ad,0.904,0.858,0.824,0.778,0.581,1.01,0.918,0.465,0.574,0.5,0.456,0.358,0.497,0.447,0.581,0.351,0.936,0.864,0.403
LCLC-97TM1,0.264,0.211,0.343,0.305,0.248,0.706,,0.128,0.4,0.382,0.113,0.382,0.429,0.339,0.596,0.288,0.933,0.897,0.278
LK-2,0.508,0.422,0.336,0.263,0.0851,0.169,0.157,0.167,0.364,0.238,0.233,,0.931,0.824,0.916,0.843,1.14,1.28,0.316
LOU-NH91,0.754,0.751,0.741,0.798,0.556,0.305,0.339,0.296,0.631,0.601,0.531,0.682,0.724,0.578,0.633,0.641,0.892,0.92,0.801
LU99A,0.301,0.297,0.247,0.198,0.104,0.301,0.259,0.253,0.912,0.886,0.659,0.691,0.968,0.777,0.948,0.866,0.873,0.83,0.365
LXF-289,1.08,1.13,1.02,1.07,0.811,0.583,0.776,0.425,0.555,0.52,0.443,0.857,0.972,0.95,1,0.892,1.05,0.958,0.715
NCI-H23,0.293,0.161,0.282,0.276,0.226,0.225,0.21,0.204,0.987,0.757,0.518,,0.958,0.728,0.959,0.958,1.03,0.769,0.356
NCI-H322M,0.558,0.428,0.496,0.345,0.353,0.779,0.751,0.432,0.731,0.705,0.52,1.24,1.24,1.23,1.49,1.18,0.828,0.827,0.565
NCI-H441,1.36,1.08,1.34,1.37,1.07,0.315,0.313,0.36,0.574,0.755,0.258,,0.625,0.513,0.575,0.48,0.892,0.832,0.382
NCI-H460,0.651,0.531,0.564,0.589,0.476,0.0418,0.0325,0.0305,0.354,0.547,0.0633,,1.38,1.13,1.23,0.656,1.2,1.02,0.817
NCI-H596,1.09,1.09,1.12,1.07,1.04,0.914,0.832,0.758,0.709,0.656,0.579,0.913,1.08,0.893,1.18,0.953,0.932,0.734,0.649
NCI-H647,0.555,0.376,0.567,0.403,0.176,0.133,0.108,0.264,0.309,0.423,0.189,,1.22,0.955,1.34,0.979,1.09,1.21,1.16
NCI-H727,0.627,0.403,0.562,0.619,0.476,0.24,0.382,0.216,0.512,0.641,0.341,0.465,0.334,0.347,0.414,0.397,0.855,0.818,0.38
NCI-H838,0.939,0.907,0.94,0.952,0.888,0.27,0.275,0.282,0.468,0.395,0.193,1.02,1.22,1.16,1.1,1.22,0.971,1.05,0.628
NCI-H1355,0.657,0.645,0.846,0.747,0.598,0.594,0.687,0.471,0.431,0.391,0.327,0.975,0.959,0.906,1.03,0.975,0.9,0.989,0.428
NCI-H1395,0.374,0.375,0.397,0.396,0.327,0.686,0.834,0.732,0.462,0.411,0.404,1.23,,1.03,1.08,1.22,1.1,,0.807
NCI-H1437,1.1,1,1.11,1.2,1.05,1.14,1.13,1.08,0.283,0.31,0.224,1.02,1.15,1.14,1.17,1.08,1.25,1.27,1.29
NCI-H1651,0.502,0.442,0.534,0.398,0.349,1.24,,0.693,0.278,0.336,0.179,0.9,1.08,0.95,1.11,1.17,0.802,0.883,0.774
NCI-H1666,0.943,0.741,0.879,0.92,0.641,0.945,0.975,0.843,0.564,0.505,0.501,0.841,0.937,0.965,1.05,0.797,0.973,0.899,0.801
NCI-H1734,0.521,0.433,0.462,0.312,0.182,0.221,0.164,0.166,0.332,0.338,0.255,0.58,1.05,0.886,0.932,0.664,0.802,0.824,0.354
NCI-H1755,0.387,0.396,0.463,0.43,0.317,0.304,0.272,0.445,0.631,0.537,0.512,0.968,1.1,1,1.15,0.948,1.03,0.897,0.761
NCI-H1793,0.406,0.31,0.477,0.648,0.211,0.164,0.168,0.144,0.35,0.371,0.26,0.31,0.398,0.519,0.456,0.509,0.684,0.587,0.22
NCI-H1915,0.717,0.631,0.61,0.548,0.516,0.631,0.821,0.699,0.332,0.343,0.369,0.802,0.805,0.762,0.77,0.775,1.04,1.1,0.902
NCI-H1944,0.503,0.466,0.44,0.311,0.198,0.667,0.741,0.58,0.211,0.202,0.197,1.05,1.06,0.983,1.06,1.04,0.847,0.929,0.533
NCI-H1975,0.749,0.743,0.665,0.761,0.722,0.23,0.138,0.167,0.422,0.367,0.24,0.852,1.15,1.03,1.18,0.695,1.2,0.911,0.497
NCI-H1993,0.811,0.87,0.855,0.704,0.428,,0.785,0.499,0.508,0.467,0.519,0.911,0.802,0.896,0.929,0.81,0.766,0.746,0.553
